Where two headings read alike, the source gives them in different places. Where a SMILES comes first, the peptide text is derived from it. Bridges are numbered along the chain shown (N, C = ends). [ ]: non-standard residue; d: D form. The star is where a group is joined. hPhe(3,5-F2-4-CF3) = N[C@@H](CCc1cc(F)c(C(F)(F)F)c(F)c1)C(=O)O; hPhe(3-Cl-4-CF3) = N[C@@H](CCc1ccc(C(F)(F)F)c(Cl)c1)C(=O)O; NPrPhe(4-CF3) = CCCN[C@@H](Cc1ccc(C(F)(F)F)cc1)C(=O)O; Abu(4,4,4-F3) = N[C@@H](CC(F)(F)F)C(=O)O; NMeGly(cPent) = CN[C@H](C(=O)O)C1CCCC1; Pro(4,4-F2) = O=C(O)[C@@H]1CC(F)(F)CN1; Nva(3-Et) = CCC(CC)[C@H](N)C(=O)O; NMeD = CN[C@@H](CC(=O)O)C(=O)O; NMeL = CN[C@@H](CC(C)C)C(=O)O; Morpholide = C1CN(*)CCO1; Ac5c = NC1(C(=O)O)CCCC1; Aze = O=C(O)[C@@H]1CCN1; NEtG = CCNCC(=O)O; Sar = CNCC(=O)O
Key:
[1] = target: GDP-bound KRAS wild-type protein (Homo sapiens, UniProt P01116); assay: Binding to KRAS by surface plasmon resonance (SPR), Single Cycle Kinetics; conditions: GDP-bound KRAS wild-type protein, read-out: KRAS KD
[2] = target: GDP-bound NRAS wild-type protein (Homo sapiens, UniProt P01111); assay: Binding to NRAS by surface plasmon resonance (SPR), Single Cycle Kinetics; conditions: for NRAS/KRAS (ratio of KD value with respect to NRAS to KD value with respect to KRAS) / NRAS/KRAS (ratio of KD value for NRAS to KD value for KRAS): SPR, GDP-bound NRAS wild-type protein vs GDP-bound KRAS wild-type protein
[3] = target: GDP-bound HRAS wild-type protein (Homo sapiens, UniProt P01112); assay: Binding to HRAS by surface plasmon resonance (SPR), Single Cycle Kinetics; conditions: for HRAS/KRAS (ratio of KD value with respect to HRAS to KD value with respect to KRAS) / HRAS/KRAS (ratio of KD value for HRAS to KD value for KRAS): SPR, GDP-bound HRAS wild-type protein vs GDP-bound KRAS wild-type protein
[4] = SPR Single Cycle Kinetics, 1:1 binding model

Chain of GDP-bound KRAS wild-type protein (P01116 whole entry): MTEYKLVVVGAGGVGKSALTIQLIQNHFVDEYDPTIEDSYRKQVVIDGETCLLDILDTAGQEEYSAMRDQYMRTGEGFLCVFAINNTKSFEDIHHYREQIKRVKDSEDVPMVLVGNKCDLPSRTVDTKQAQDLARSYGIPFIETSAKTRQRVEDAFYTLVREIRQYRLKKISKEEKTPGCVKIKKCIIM
Chain of GDP-bound HRAS wild-type protein (P01112 whole entry): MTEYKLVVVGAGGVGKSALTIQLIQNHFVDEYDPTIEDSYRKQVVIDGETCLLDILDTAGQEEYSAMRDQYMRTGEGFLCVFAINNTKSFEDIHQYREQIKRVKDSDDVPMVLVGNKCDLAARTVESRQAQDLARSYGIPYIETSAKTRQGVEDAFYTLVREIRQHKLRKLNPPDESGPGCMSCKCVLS
Chain of GDP-bound NRAS wild-type protein (P01111 whole entry): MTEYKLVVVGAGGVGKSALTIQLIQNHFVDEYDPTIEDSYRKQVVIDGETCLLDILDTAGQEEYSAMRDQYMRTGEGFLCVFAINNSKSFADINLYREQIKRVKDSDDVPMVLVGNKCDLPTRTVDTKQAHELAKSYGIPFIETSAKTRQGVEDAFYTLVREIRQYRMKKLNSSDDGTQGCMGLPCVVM

Kd [1, 4] [nM] | Kd ([1]; SPR, Single Cycle Kinetics) [nM] | SMILES | NRAS/KRAS (ratio of KD value with respect to NRAS to KD value with respect to KRAS) [2] | HRAS/KRAS (ratio of KD value with respect to HRAS to KD value with respect to KRAS) [3] | NRAS/KRAS (ratio of KD value for NRAS to KD value for KRAS) [2] | HRAS/KRAS (ratio of KD value for HRAS to KD value for KRAS) [3] | further results
0.049 | – | CCCN1C(=O)CN(C)C(=O)CN(C)C(=O)[C@H]([C@@H](C)CC)NC(=O)[C@H](CC(C)C)N(C)C(=O)C[C@@H](C(=O)N(C)C)N(C)C(=O)[C@H](C2CCCC2)N(C)C(=O)C2(CCCC2)NC(=O)[C@@H]2CC(F)(F)CN2C(=O)[C@H](CCc2ccc(C(F)(F)F)c(Cl)c2)NC(=O)CN(C)C(=O)[C@@H]1Cc1ccc(C(F)(F)F)cc1 [PP0413] ([NMeL]I[Sar][Sar][NPrPhe(4-CF3)][Sar][hPhe(3-Cl-4-CF3)][Pro(4,4-F2)][Ac5c][NMeGly(cPent)][NMeD]-NMe2; lactam N-11) | C (A compound having a KD ratio of 0.1 or more and less than 3 is denoted as C) | C (A compound having a KD ratio of 0.1 or more and less than 3 is denoted as C) | – | – | –
6.2 | – | CC[C@H](C)[C@@H]1NC(=O)[C@@H](CC(C)C)N(C)C(=O)C[C@@H](C(=O)N(C)C)N(C)C(=O)[C@@H](C2CCCC2)N(C)C(=O)C2(CCCC2)NC(=O)[C@@H]2CCCN2C(=O)[C@H](CCc2ccc(C(F)(F)F)c(Cl)c2)NC(=O)CN(C)C(=O)[C@@H](Cc2ccc(C)cc2)N2CC/C=C\CCN(CC2=O)C(=O)CN(C)C1=O [PP0618] | C (A compound having a KD ratio of 0.1 or more and less than 3 is denoted as C) | C (A compound having a KD ratio of 0.1 or more and less than 3 is denoted as C) | – | – | –
– | 0.29 | C=CCN1CC(=O)N(C)[C@H]2C/C=C\CCN(C2=O)[C@@H](Cc2ccc(C)cc2)C(=O)N(C)CC(=O)N[C@@H](CCc2cc(F)c(C(F)(F)F)c(F)c2)C(=O)N2C[C@H](OCC)C[C@H]2C(=O)NC2(CC(C)(C)C2)C(=O)N(C)[C@@H](C2CCCC2)C(=O)N(C)[C@H](C(=O)N(C)C)CC(=O)N(C)[C@@H](CCC)C(=O)N[C@@H]([C@@H](C)CC)C1=O [PP2094] | – | – | A (a compound having 10 or more and less than 20 is denoted as A) | A (a compound having 10 or more and less than 20 is denoted as A) | –
– | 0.16 | CC[C@H](C)[C@@H]1NC(=O)[C@@H]2CCC/C=C/c3ccc(cc3)C[C@@H](C(=O)N(C)CC(=O)N[C@@H](CCc3ccc(Cl)c(Cl)c3)C(=O)N3C[C@H](OC4CCC4)C[C@H]3C(=O)NC3(CC(C)(C)C3)C(=O)N(C)[C@@H](C3CCCC3)C(=O)N(C)[C@H](C(=O)N3CCCC3)CC(=O)N2C)N2CC/C=C\C[C@@H](C2=O)N(C)C(=O)CN(C)C1=O [PP3053] | – | – | A (a compound having 10 or more and less than 20 is denoted as A) | A (a compound having 10 or more and less than 20 is denoted as A) | –
– | 0.053 | CC[C@H](C)[C@@H]1NC(=O)[C@@H]2CCCCCCc3ccc(cc3)C[C@@H](C(=O)N(C)CC(=O)N[C@@H](CCc3ccc(C(F)(F)F)c(OC)c3)C(=O)N3C[C@H](OC(C)C)C[C@H]3C(=O)NC3(CC(C)(C)C3)C(=O)N(C)[C@@H](C3CCCC3)C(=O)N(C)[C@H](C(=O)N(C)C)CC(=O)N2C)N2CC/C=C\C[C@@H](C2=O)N(C)C(=O)CN(C)C1=O [PP3067] | – | – | A (a compound having 10 or more and less than 20 is denoted as A) | B (a compound having 3 or more and less than 10 is denoted as B) | –
– | 0.84 | CCO[C@@H]1C[C@H]2C(=O)NC3(CCC3)C(=O)N(C)[C@@H](C3CCCC3)C(=O)N[C@H](C(=O)N(C)C)CC(=O)N(C)[C@@H](CC)C(=O)N[C@@H]([C@@H](C)CC)C(=O)N(C)CC(=O)N(C)[C@H]3C/C=C\CCN(C3=O)[C@@H](Cc3ccc(C(F)(F)F)cc3)C(=O)N(C)CC(=O)N[C@@H](CCc3cc(F)c(C(F)(F)F)c(F)c3)C(=O)N2C1 [PP1094] | – | – | A (a compound having 10 or more and less than 20 is denoted as A) | B (a compound having 3 or more and less than 10 is denoted as B) | –
1.4 | – | CCCN1C(=O)[C@@H]2CCN2C(=O)CN(C)C(=O)[C@H](C(CC)CC)NC(=O)[C@H](CC(C)C)N(C)C(=O)C[C@@H](C(=O)N2CCOCC2)N(C)C(=O)[C@H](C2CCCC2)N(C)C(=O)C2(CCCC2)NC(=O)[C@@H]2CCCN2C(=O)[C@H](CCc2cc(F)c(C(F)(F)F)c(F)c2)NC(=O)CN(C)C(=O)[C@@H]1Cc1ccc(C(F)(F)F)cc1 [PP0804] ([NMeL][Nva(3-Et)][Sar][Aze][NPrPhe(4-CF3)][Sar][hPhe(3,5-F2-4-CF3)]P[Ac5c][NMeGly(cPent)][NMeD]-Morpholide; lactam N-11) | C (A compound having a KD ratio of 0.1 or more and less than 3 is denoted as C) | B (a compound having 3 or more and less than 10 is denoted as B) | – | – | –
0.025 | – | CCC[C@H]1C(=O)N[C@@H]([C@@H](C)CC)C(=O)N(C)CC(=O)N(C)[C@H]2CCCCN(C2=O)[C@@H](Cc2ccc(C(F)(F)F)cc2)C(=O)N(C)CC(=O)N[C@@H](CCc2cc(F)c(C(F)(F)F)c(F)c2)C(=O)N2C[C@H](OCC)C[C@H]2C(=O)NC2(CCC2)C(=O)N(C)[C@@H](C2CCCC2)C(=O)N(C)[C@H](C(=O)N(C)C)CC(=O)N1C [PP0694] | C (A compound having a KD ratio of 0.1 or more and less than 3 is denoted as C) | C (A compound having a KD ratio of 0.1 or more and less than 3 is denoted as C) | – | – | –
– | 0.27 | CC[C@H](C)[C@@H]1NC(=O)[C@H](CC(C)C)N(C)C(=O)C[C@@H](C(=O)N2CCOCC2)N(C)C(=O)[C@H](C2CCCC2)N(C)C(=O)C2(CCC2)NC(=O)[C@@H]2C[C@@H](OC)CN2C(=O)[C@H](CCc2cc(F)c(C(F)(F)F)c(F)c2)NC(=O)CN(C)C(=O)[C@H](Cc2ccc(C(F)(F)F)cc2)N2CCCCC[C@@H](C2=O)N(C)C(=O)CN(C)C1=O [PP1016] | – | – | A (a compound having 10 or more and less than 20 is denoted as A) | B (a compound having 3 or more and less than 10 is denoted as B) | –
2.2 | – | CCCN1C(=O)CN(C)C(=O)CN(CC)C(=O)[C@H](CC(F)(F)F)NC(=O)[C@H](CC(C)C)N(C)C(=O)C[C@@H](C(=O)N2CCOCC2)N(C)C(=O)[C@H](C2CCCC2)N(C)C(=O)C2(CCCC2)NC(=O)[C@@H]2CCCN2C(=O)[C@H](CCc2ccc(C(F)(F)F)c(Cl)c2)NC(=O)CN(C)C(=O)[C@@H]1Cc1ccc(C(F)(F)F)cc1 [PP0291] ([NMeL][Abu(4,4,4-F3)][NEtG][Sar][NPrPhe(4-CF3)][Sar][hPhe(3-Cl-4-CF3)]P[Ac5c][NMeGly(cPent)][NMeD]-Morpholide; lactam N-11) | – | – | B (a compound having 3 or more and less than 10 is denoted as B) | B (a compound having 3 or more and less than 10 is denoted as B) | –
– | – | CCO[C@@H]1C[C@H]2C(=O)NC3(CCC3)C(=O)N(C)[C@@H](C3CCCC3)C(=O)N(C)[C@H](C(=O)N(CC)CC)CC(=O)N(C)[C@@H](CC(C)C)C(=O)N[C@@H]([C@@H](C)CC)C(=O)N(C)CC(=O)N(C)[C@H]3C/C=C\CCN(C3=O)[C@@H](Cc3ccc(C(F)(F)F)cc3)C(=O)N(C)CC(=O)N[C@@H](CCc3cc(F)c(C(F)(F)F)c(F)c3)C(=O)N2C1 [PP1306] | – | – | – | – | Kd ([1]; SPR, Single Cycle Kinetics, 1:1 binding model): 0.2 nM; NRAS/KRAS (ratio of KD value for NRAS to KD value for KRAS) ([2]; KD ratio class): AA (a compound having 20 or more is denoted as AA); HRAS/KRAS (ratio of KD value for HRAS to KD value for KRAS) ([3]; KD ratio class): A (a compound having 10 or more and less than 20 is denoted as A)
– | 0.083 | CCO[C@@H]1C[C@H]2C(=O)NC3(CCC3)C(=O)N(C)[C@@H](C(CC)CC)C(=O)N(C)[C@H](C(=O)N3CCOCC3)CC(=O)N(C)[C@@H](CC(C)C)C(=O)N[C@@H]([C@@H](C)CC)C(=O)N(C)CC(=O)N(C)[C@H]3CCCCN(C3=O)[C@@H](Cc3ccc(C(F)(F)F)cc3)C(=O)N(C)CC(=O)N[C@@H](CCc3cc(F)c(C(F)(F)F)c(F)c3)C(=O)N2C1 [PP0811] | – | – | B (a compound having 3 or more and less than 10 is denoted as B) | B (a compound having 3 or more and less than 10 is denoted as B) | –
0.027 | – | CCO[C@@H]1C[C@H]2C(=O)NC3(CCC3)C(=O)N(C)[C@@H](C3CCCC3)C(=O)N(C)[C@H](C(=O)N(C)C)CC(=O)N(C)[C@@H](CCOC)C(=O)N[C@@H]([C@@H](C)CC)C(=O)N(C)CC(=O)N(C)[C@H]3CCCCN(C3=O)[C@@H](Cc3ccc(C(F)(F)F)cc3)C(=O)N(C)CC(=O)N[C@@H](CCc3cc(F)c(C(F)(F)F)c(F)c3)C(=O)N2C1 [PP0705] | C (A compound having a KD ratio of 0.1 or more and less than 3 is denoted as C) | C (A compound having a KD ratio of 0.1 or more and less than 3 is denoted as C) | – | – | –
0.21 | – | CCO[C@@H]1C[C@H]2C(=O)NC3(CC(C)(C)C3)C(=O)N(C)[C@@H](C(CC)CC)C(=O)N(C)[C@H](C(=O)N3CCCC3)CC(=O)N(C)[C@H]3CCC/C=C/c4ccc(cc4)C[C@@H](C(=O)N(C)CC(=O)N[C@@H](CCc4ccc(Cl)c(Cl)c4)C(=O)N2C1)N1CC/C=C\C[C@@H](C1=O)N(C)C(=O)CN(C)C(=O)[C@H]([C@@H](C)CC)NC3=O [PP2581] | – | – | – | – | NRAS/KRAS (ratio of KD value with respect to GDP-bound NRAS wild-type protein to KD value with respect to KRAS) ([2]; SPR KD ratio NRAS/KRAS, class symbols): AA (a compound having 20 or more is denoted as AA); HRAS/KRAS (ratio of KD value with respect to GDP-bound HRAS wild-type protein to KD value with respect to KRAS) ([3]; SPR KD ratio HRAS/KRAS, class symbols): A (a compound having 10 or more and less than 20 is denoted as A)

Reference: patent US20240158446A1, “CYCLIC COMPOUND HAVING SELECTIVE INHIBITORY ACTION ON KRAS OVER HRAS AND NRAS” (CHUGAI SEIYAKU KABUSHIKI KAISHA, priority 2021, published 2024)
